From patent US20120214862A1, “MODULATION OF FACTOR 7 EXPRESSION” (ISIS Pharmaceuticals, Inc., priority 2009, published 2012)
In the oligonucleotide strings, read from the 5' end, every base follows the letter of its sugar. An asterisk marks phosphorothioate; unmarked linkages are phosphodiester. Other units and linkages are bracketed, terminal groups are in braces. A string of capitals states the bases alone. e = 2'-O-(2-methoxyethyl) (MOE); [5mC] = 5-methylcytosine; d = 2'-deoxy (DNA)

Experiments:
human Factor 7 mRNA = assay: Inhibition of human Factor 7 mRNA by 2-10-2 MOE shortmers in HepB3 cells, electroporation, 1,000 nM; assay type: cell-based; settings: electroporation, 1,000 nM oligonucleotide, approximately 24 hours, relative to untreated control cells
Method in brief: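 14-mer 2-10-2 2′-MOE gapmers, full phosphorothioate, 5-methylcytidines, electroporated at 1,000 nM into HepB3 cells (20,000/well). After ~24 h, mRNA quantified by real-time RT-PCR, normalized to RIBOGREEN total RNA; percent inhibition relative to untreated cells.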

murine Factor 7 mRNA = assay: Liver Factor 7 mRNA by real-time RT-PCR in treated BALB/c mice; assay type: in vivo, mouse; settings: for % inhibition of murine Factor 7 mRNA: BALB/c liver; for % inhibition of murine Factor 7 mRNA / % inhibition of Factor 7 mRNA: relative to PBS control; for % inhibition of Factor 7 mRNA: liver; for % inhibition of Factor 7 mRNA (liver): mice
Protocol: A control group of mice was injected subcutaneously with PBS twice a week for 3 weeks. After the treatment period, whole liver was collected for RNA and protein analysis, and plasma was collected for clotting analysis (PT/aPTT).
(§1) RNA was extracted from liver tissue for real-time RT-PCR analysis of Factor 7.
A control group of 3 mice was injected with a single dose of PBS, and mice in this group were sacrificed on day 1. Mice in all groups were sacrificed by cervical dislocation following anesthesia with 150 mg/kg ketamine mixed with 10 mg/kg xylazine administered by intraperitoneal injection. Liver was harvested for RNA analysis and plasma was collected for clotting analysis (PT and aPTT).
as §1
Mice from the first group were sacrificed on days 1 and 3 after the single dose. […] A control group of 3 mice was injected with PBS in a single dose. Mice from the control group were sacrificed 1 day later. Mice in all groups were sacrificed by cervical dislocation following anesthesia with 150 mg/kg ketamine mixed with 10 mg/kg xylazine administered by intraperitoneal injection. Liver was harvested for RNA analysis and plasma was collected for clotting analysis (PT and aPTT) for mice in all groups.
RNA was extracted from liver tissue for quantitative RT-PCR analysis of Factor 7.
Two control groups of BALB/c mice were treated with PBS, administered subcutaneously twice a week for 3 weeks. Thrombus formation was induced with FeCl3 in half of the mice while the rest of the mice were assayed for tail bleeding. […] Thrombus formation was induced with FeCl3 in all groups of the VT mice except the first control group.
as §1
A fifth group of BALB/c mice was treated with 3 mg/kg of warfarin, administered intraperioneally daily for 6 days. Four hours after the last dose of warfarin, mice were sacrificed. A control group of BALB/c mice were treated with PBS, administered subcutaneously twice a week for 3 weeks. Two days after the last dose of PBS, mice were anesthetized with 150 mg/kg ketamine mixed with 10 mg/kg xylazine administered by intraperitoneal injection. Thrombus formation was induced with FeCl3 in groups of mice except the first control group.

murine Factor 7 protein = assay: Plasma Factor 7 protein, Factor 7 chromogenic assay (Hyphen BioMed), BALB/c mice; assay type: in vivo, mouse; settings: for % inhibition of murine Factor 7 protein (plasma): relative to PBS control
Protocol: BALB/c mice were treated with ISIS 403102 ([…], target site 11336, incorporated herein as SEQ ID NO: 161). BALB/c mice were injected subcutaneously with 5 mg/kg, 10 mg/kg, 25 mg/kg, or 50 mg/kg of ISIS 403102 twice a week for 3 weeks. A control group of mice was injected subcutaneously with PBS twice a week for 3 weeks. After the treatment period, whole liver was collected for RNA and protein analysis, and plasma was collected for clotting analysis (PT/aPTT).
Plasma Factor 7 protein was measured using a Factor 7 chromogenic assay (Hyphen BioMed). […] Results are presented as percent inhibition of Factor 7, relative to control.

[1] = single dose 50 mg/kg, BALB/c mice

407939 (antisense eT*eG*e[5mC]*eA*eG*d[5mC]*d[5mC]*d[5mC]*dG*dG*d[5mC]*dA*d[5mC]*d[5mC]*d[5mC]*eA*eG*e[5mC]*eG*eA) [compound 407939]
% inhibition of human Factor 7 mRNA (human Factor 7 mRNA): 81%

CCATAGAACAGCTTCACAGG (sugars from the 5' end e5 d10 e5, backbone and methylation of C not given here) [ISIS 403102]
% inhibition of murine Factor 7 mRNA (murine Factor 7 mRNA; 5 mg/kg sc twice a week for 3 weeks): 64%
% inhibition of murine Factor 7 mRNA (murine Factor 7 mRNA; 10 mg/kg sc twice a week for 3 weeks): 84%
% inhibition of murine Factor 7 mRNA (murine Factor 7 mRNA; 25 mg/kg sc twice a week for 3 weeks): 96%
% inhibition of murine Factor 7 mRNA (murine Factor 7 mRNA; 50 mg/kg sc twice a week for 3 weeks): 99%
reduction of murine Factor 7 (liver mRNA) over PBS control (murine Factor 7 mRNA; 5-50 mg/kg sc twice a week for 3 weeks, BALB/c mice): dose-dependent reduction
% Inhibition of murine Factor 7 mRNA (liver) (murine Factor 7 mRNA; BALB/c mice, single dose 50 mg/kg, day 1): 61%
% Inhibition of murine Factor 7 mRNA (liver) (murine Factor 7 mRNA; BALB/c mice, single dose 50 mg/kg, day 2): 87%
% Inhibition of murine Factor 7 mRNA (liver) (murine Factor 7 mRNA; BALB/c mice, single dose 50 mg/kg, day 3): 92%
% Inhibition of murine Factor 7 mRNA (liver) (murine Factor 7 mRNA; BALB/c mice, single dose 50 mg/kg, day 4): 92%
% Inhibition of murine Factor 7 mRNA (liver) (murine Factor 7 mRNA; BALB/c mice, single dose 50 mg/kg, day 6): 86%
% Inhibition of murine Factor 7 mRNA (liver) (murine Factor 7 mRNA; BALB/c mice, single dose 50 mg/kg, day 8): 80%
% Inhibition of murine Factor 7 mRNA (liver) (murine Factor 7 mRNA; BALB/c mice, single dose 50 mg/kg, day 12): 72%
% Inhibition of murine Factor 7 mRNA (liver) (murine Factor 7 mRNA; BALB/c mice, single dose 50 mg/kg, day 24): 11%
% Inhibition of murine Factor 7 mRNA (liver) (murine Factor 7 mRNA; BALB/c mice, single dose 50 mg/kg, day 56): 0%
Factor 7 inhibition over time (murine Factor 7 mRNA; Example 13, 6 doses of 25 mg/kg sc, days 14, 28, 42 and 56 after last dose): declined progressively
inhibition of Factor 7 mRNA, onset (murine Factor 7 mRNA; Example 13, single dose 25 mg/kg sc): inhibition of Factor 7 as early as day 1
reduction of Factor 7 mRNA in comparison to the PBS control (murine Factor 7 mRNA; Example 14, 25, 37.5 or 50 mg/kg sc twice a week for 3 weeks, FeCl3 VT model): significant dose-dependent reduction
reduction of Factor 7 mRNA in comparison to the PBS control (murine Factor 7 mRNA; Example 15, 5-40 mg/kg sc twice a week for 3 weeks): significant dose-dependent reduction
% inhibition of Factor 7 mRNA (murine Factor 7 mRNA; BALB/c mice, FeCl3 VT model (Example 15), 5 mg/kg s.c. twice a week for 3 weeks): 59%
% inhibition of Factor 7 mRNA (murine Factor 7 mRNA; BALB/c mice, FeCl3 VT model (Example 15), 10 mg/kg s.c. twice a week for 3 weeks): 84%
% inhibition of Factor 7 mRNA (murine Factor 7 mRNA; BALB/c mice, FeCl3 VT model (Example 15), 20 mg/kg s.c. twice a week for 3 weeks): 95%
% inhibition of Factor 7 mRNA (murine Factor 7 mRNA; BALB/c mice, FeCl3 VT model (Example 15), 40 mg/kg s.c. twice a week for 3 weeks): 99%
% inhibition of Factor 7 mRNA (murine Factor 7 mRNA; BALB/c mice, FeCl3 VT model, 25 mg/kg s.c. twice a week for 3 weeks): 24%
% inhibition of Factor 7 mRNA (murine Factor 7 mRNA; BALB/c mice, FeCl3 VT model, 37.5 mg/kg s.c. twice a week for 3 weeks): 74%
% inhibition of Factor 7 mRNA (murine Factor 7 mRNA; BALB/c mice, FeCl3 VT model, 50 mg/kg s.c. twice a week for 3 weeks): 69%
% inhibition of Factor 7 mRNA (liver) (murine Factor 7 mRNA; 25 mg/kg s.c. twice a week, 2 doses, 3 days after last dose): 86%
% inhibition of Factor 7 mRNA (liver) (murine Factor 7 mRNA; 25 mg/kg s.c. twice a week, 4 doses, 3 days after last dose): 91%
% inhibition of Factor 7 mRNA (liver) (murine Factor 7 mRNA; 25 mg/kg s.c. twice a week, 6 doses, 2 days after last dose): 83%
% inhibition of Factor 7 mRNA (liver) (murine Factor 7 mRNA; 25 mg/kg s.c. twice a week, 6 doses, 7 days after last dose): 88%
% inhibition of Factor 7 mRNA (liver) (murine Factor 7 mRNA; 25 mg/kg s.c. twice a week, 6 doses, 14 days after last dose): 64%
% inhibition of Factor 7 mRNA (liver) (murine Factor 7 mRNA; 25 mg/kg s.c. twice a week, 6 doses, 28 days after last dose): 33%
% inhibition of Factor 7 mRNA (liver) (murine Factor 7 mRNA; 25 mg/kg s.c. twice a week, 6 doses, 42 days after last dose): 5%
% inhibition of Factor 7 mRNA (liver) (murine Factor 7 mRNA; 25 mg/kg s.c. twice a week, 6 doses, 56 days after last dose): 11%
% inhibition of Factor 7 mRNA (liver) (murine Factor 7 mRNA; 25 mg/kg s.c., 1 dose, 1 day after last dose): 44%
% inhibition of Factor 7 mRNA (liver) (murine Factor 7 mRNA; 25 mg/kg s.c., 1 dose, 3 days after last dose): 74%
duration of action (murine Factor 7 mRNA; [1]): at least 24 days
peak effect of a single dose occurs on (murine Factor 7 mRNA; [1]): ~4 days
inhibition of Factor 7 mRNA (murine Factor 7 mRNA; single dose 50 mg/kg, day 4): 92%
inhibition of Factor 7 mRNA (murine Factor 7 mRNA; single dose 50 mg/kg, day 24): 11%
Factor 7 mRNA levels (murine Factor 7 mRNA; single dose 50 mg/kg, day 56): equal to that of the PBS control
% inhibition of murine Factor 7 protein (plasma) (murine Factor 7 protein; 5 mg/kg s.c. twice a week for 3 weeks): 71%
% inhibition of murine Factor 7 protein (plasma) (murine Factor 7 protein; 10 mg/kg s.c. twice a week for 3 weeks): 88%
% inhibition of murine Factor 7 protein (plasma) (murine Factor 7 protein; 25 mg/kg s.c. twice a week for 3 weeks): 99%
% inhibition of murine Factor 7 protein (plasma) (murine Factor 7 protein; 50 mg/kg s.c. twice a week for 3 weeks): 99%
reduction of murine Factor 7 protein over PBS control (murine Factor 7 protein; 5-50 mg/kg sc twice a week for 3 weeks, plasma): dose-dependent reduction
